{"source": "patent EP0189101A2", "about": "“Compounds having mucolytic and bronchodilating activity, a process for their preparation and pharmaceutical composition containing them as active principle” (PROTER S.p.A., priority 1985, dated 1986)", "key": {"[1]": {"system": "shock induced by histamine", "assay": "antibronchospastic activity, shock induced by histamine", "format": "in vivo", "conditions": "0.25 mM/kg/i.p.; guinea pig; value after treatment"}, "[2]": {"system": "spasm induced by acetylcholine", "assay": "Konzett-Rossler test, spasm induced by acetylcholine", "format": "in vivo", "conditions": "spasm induced by acetylcholine (10 mcg/kg/e.v.); guinea pig", "description": "(§1) (0.0276-0.1406), like that of theophylline of 0.0395 mM/kg/e.v. […] (0.0133-0,893) which is definitely and significatively lower than that of theophylline (0.1026 (0.0508-0.2072). The bronchodilating activity of the compounds of formula I is consequently definitely higher than that of theophylline."}, "[3]": {"system": "spasm induced by histamine", "assay": "Konzett-Rossler test, spasm induced by histamine", "format": "in vivo", "conditions": "spasm induced by histamine (2 mcg/kg/e.v.); guinea pig", "description": "as §1"}, "suspension of 4% mucine": {"system": "suspension of 4% mucine", "assay": "in vitro mucolytic activity, viscosity of a 4% mucine suspension", "format": "biochemical", "conditions": "0,00625 M, after hydrolysis with rat serum", "from_the_text": "More specifically in the test of \"in vitro\" mucolytic activity with a suspension of 4% mucine (II Farmaco, ed.prat.33-379, 1978), and the molar concentration being the same (0,00625 M), after hydrolysis with rat serum, the 2-f(theophyllin-7-yl)-methyloxysuccinoylthiSïpropionamido acetic acid caused a reduction of viscosity by 11,2% to take place, which is like that of tiopronin (11,5%) and higher than that of N-acetylcysteine (7,6%)."}, "[4]": {"system": "cough induced by citric acid", "assay": "anticough activity, cough induced by citric acid", "conditions": "guinea pig"}, "[5]": {"system": "fluid of the respiratory tract", "assay": "mucolytic-expectorant activity, fluorescein elimination in the fluid of the respiratory tract", "format": "in vivo", "conditions": "1 mM/kg/os; in comparison with the controls"}, "acute toxicity": {"assay": "acute toxicity", "conditions": "in vivo, ip; female mouse"}}, "data": [{"smiles": "Cn1c(=O)c2[nH]cnc2n(C)c1=O", "note": "[theophylline]", "values": [{"measurement": "shock resistance", "setting": "[1]", "result": "316.8 ± 27.3", "unit": "s"}, {"measurement": "ED50", "setting": "[2]", "result": 0.0395, "unit": "mM/kg/e.v."}, {"measurement": "ED", "setting": "[3]", "result": "0.1026 (0.0508-0.2072) mM/kg/e.v."}]}, {"smiles": "CC(=O)N[C@@H](CS)C(=O)O", "note": "[N-acetylcysteine]", "values": [{"measurement": "reduction of viscosity", "setting": "suspension of 4% mucine", "result": "7,6%"}]}, {"smiles": "COc1ccc2c3c1O[C@H]1[C@@H](O)C=C[C@H]4[C@@H](C2)N(C)CC[C@@]341", "note": "[codeine phosphate]", "values": [{"measurement": "reduction of the cough", "setting": "[4]; 5 mg/kg/i.p.", "result": 87, "unit": "%"}]}, {"smiles": "CC(SC(=O)CCC(=O)OCn1cnc2c1c(=O)n(C)c(=O)n2C)C(=O)NCC(=O)O", "note": "(centres unmarked) [2-[(theophyllin-7-yl)methyloxysuccinoylthio]-propionamido acetic acid]", "values": [{"measurement": "reduction of viscosity", "setting": "suspension of 4% mucine", "result": "11,2%"}, {"measurement": "increase of the escretion of the colouring compound", "setting": "[5]", "result": 86, "unit": "%"}, {"measurement": "shock resistance", "setting": "[1]", "result": "291.7 ± 43.2", "unit": "s"}, {"measurement": "ED50", "setting": "[2]", "result": 0.0623, "unit": "mM/kg/e.v."}, {"measurement": "ED", "setting": "[3]", "result": 0.0345, "unit": "mM/kg/e.v."}, {"measurement": "LD50", "setting": "acute toxicity", "result": 481, "unit": "mg/kg"}, {"measurement": "reduction of the cough", "setting": "[4]; 100 mg/kg/i.p., in comparison with the controls", "result": 79, "unit": "%"}]}, {"smiles": "CC(S)C(=O)NCC(=O)O", "note": "(centres unmarked) [tiopronin]", "values": [{"measurement": "reduction of viscosity", "setting": "suspension of 4% mucine", "result": "11,5%"}, {"measurement": "increase of the escretion of the colouring compound", "setting": "[5]", "result": 94, "unit": "%"}]}]}
